≈ marks a conversion by molar mass, not a printed value. Where only a bound is given, the exact number is not on record here.

Consider 9 compounds from publication PMC3183257 (Tuberculosis (Edinburgh, Scotland), 2011).

The subject of data set [1] is Mycobacterium tuberculosis H37Rv. Nature of the data set: Mtb dose response. In kind it is cell-based. Conditions: for IC90: Table 2, Mtb H37Rv dose response.
For data set [2], the system named is tufted apple budmoth larvae (P. idaeusalis). The following applies: cited from earlier work.
A further data set relates to Vero cells. Put plainly: Cell cytotoxicity assay using Vero cells, CellTiter-Glo luminescence.

Compound `Cc1cc(Nc2ccc(C)c(C)c2)n2ncc(-c3ccccc3)c2n1` [Compound 4e] came in with an IC90 in data set [1] of 3.4 µg/mL (≈ 10.4 µM).
Same read-out and setting: in the case of `COc1ccccc1-c1cnn2c(Nc3cccc(Cl)c3)cc(C)nc12` [Compound 4a] it was 1.7 µg/mL (≈ 4.66 µM); in that of `Cc1cc(C)cc(Nc2cc(C)nc3c(-c4ccccc4)cnn23)c1` [Compound 4c], 2.7 µg/mL (≈ 8.22 µM).
In the case of `CCOc1ccc(C(=O)Nc2nnc(-c3ccccn3)o2)cc1` [Compound 22a], the “activity and toxicity in words” value in data set [1] (Mtb IC90 and Vero selectivity) was “potent and relatively non-toxic”.
Compound `COc1cccc(Nc2cc(C)nc3c(-c4ccccc4)cnn23)c1` [Compound 4b] showed an IC90 in data set [1] of 1.8 µg/mL (≈ 5.45 µM).
As for `COP(=S)(OC)SCn1nnc2ccccc2c1=O` [azinphosmethyl], the susceptibility of larvae entry in data set [2] is “susceptible”.
In the data set with Vero cells, `O=C(OCn1nnc2ccccc2c1=O)c1ccccc1` [Compound 7a] came in with a cytotoxicity above 40 µg/mL.
As to `NCC[C@H](O)C(=O)N[C@@H]1C[C@H](N)[C@@H](O[C@H]2O[C@H](CN)[C@@H](O)[C@H](O)[C@H]2O)[C@H](O)[C@H]1O[C@H]1O[C@H](CO)[C@@H](O)[C@H](N)[C@H]1O` [amikacin, reference compound], the IC50 in data set [1] (Mycobacterium tuberculosis, H37RV) was 0.13 µg/mL (≈ 0.222 µM). Further, the inhibition at 0.13 µg/mL in data set [1] (Mycobacterium tuberculosis, H37RV, read-out: inhibition of Mtb growth) is 33 to 60%.
With `Cc1cc(Nc2ccc(C)c(Cl)c2)n2ncc(-c3ccccc3)c2n1` [Compound 4d], in data set [1], the 90% effect level (IC90) was put at 3.4 µg/mL (≈ 9.75 µM).

The term IC90 denotes the point of the concentration-response curve where the effect stands at 90%. High values mean a need for much substance, low ones an effect from little substance. Usually IC50 stands for the midpoint of a concentration-inhibition curve. As a reminder, the inhibition is the share of the control response that was lost under treatment.
